Several values for one entry are separate records, joined by “and”; a condition that tells them apart may be missing. Identical values can stand only once.
Key:
p-ERK in dorsal striatum = assay: In vivo time course of striatal pERK after RB5; set-up: species or system mouse; settings: mice, acute systemic administration, 20 mg/kg i.p.
Experimental: For the dose response study, 2‐month‐old CD1 male mice were injected with different doses of RB5 (1, 2.5, 5, 10, and 20 mg/kg, i.p.), whereas the control group was injected with 20 mg/kg (i.p.) of SCR peptide. Mice were perfused 1 h later with 4% PFA. For the time course study, mice were injected i.p. with 20 mg/kg of RB5 and perfused at different time points with 4% PFA (1, 3, 6, and 12 h). The control group was injected i.p. with 20 mg/kg of SCR. Brains were postfixed in 4% PFA for 24 h and cryoprotected overnight in sucrose 30% before immunohistochemistry against phospho‐ERK1/2.
Immunohistochemistry was performed as described in Papale et al ([2016]). […]
For in vivo immunohistochemistry experiments, images were acquired from the dorsal striatum using a Leica DM IRB microscope under a 20× objective. The number of p‐ERK, p‐MSK‐1, p‐ELK, p‐MEK‐1, p‐VG K+, c‐Fos, and DARPP‐32 positive cells was counted in 2–3 consecutive sections per mouse, bilaterally and averaged across the sections using the ImageJ software by a blind investigator to the condition. Estimation of nigral cell loss was assessed by quantifying the number of TH‐immunopositive neurons of the SNc in 360 μm‐spaced sections for each animal.

[1] = test system: p-ERK1/2 in CTIP2+ neurons; assay: p-ERK1/2 in CTIP2+ iPSC-derived HD MSNs; format: cell-based, human; settings: for p-ERK1/2 in CTIP2+ neurons (Fig 5 panel f): individual replicates
Experimental: The human induced pluripotent stem cell line CS09iHD109‐n1 (herein referred to as Q109N1) was originally generated from a human fibroblast line ND39258 (RRID:CVCL_ZC78) with an expanded HTT allele initially containing 109 pure CAG trinucleotides, and the isogenic control lines used were derived by CRISPR gene‐edit to reduce the CAG repeat length to 20 repeats (Mattis et al, [2015]). IPSCS were cultured on hESC‐qualified Matrigel (Corning) in E8‐Flex medium (Thermo Fisher) and passaged with RelesR (Stem Cell Technologies) according to the manufacturer's instructions. For neural differentiation iPSCS were grown to 70% confluency and then treated with 10 μM Y‐27632 (Tocris) for 1 h before harvesting by dissociation to a single cell suspension using accutase (Sigma). IPSCs were replated onto fresh Matrigel‐coated plates at a split ratio of 1:2, in E8‐Flex medium containing 10 μM Y‐27632. After overnight culture, IPSCs at 80–90% confluency were washed with PBS pH 7.4 (Gibco) and then switched to neural induction medium (Advanced DMEM/F12 (1:1) supplemented with 2 mM GlutamaxTM (Gibco), 2% Neurobrew without vitamin A (Miltenyi), 10 μM SB431542, 1 μM LDN 193189 (both Stem Cell Technologies), and 1.5 μM IWR1 (Tocris)). Medium was changed daily until day 8, when cells were passaged 1:2 by cell dissociation with Accutase for 5 min at 37°C and replated on Matrigel® coated plates in LIA medium containing (Advanced DMEM/F12 (1:1) supplemented with 2 mM GlutamaxTM, 2% Neurobrew without vitamin A, 0.2 μM LDN 193189, 1.5 μM IWR1, and 20 ng/ml Activin A (Peprotech)). At day 16, cells were plated for neuronal differentiation according to (Telezhkin et al, [2016]). […]
Images were acquired using a confocal microscope (Zeiss LSM710) under a 20× objective and analyzed with ImageJ software.

With “GRKKRRQRRRPPQGGGGGEPRRTEGVGPGVPGEVEMVKGQPFDV [RB5, six D-amino acids, acetylated N-terminus]” the “half-life (suggested by duration of striatal ERK phosphorylation)” value (p-ERK in dorsal striatum) was 6 to 12 h, the “p-ERK1/2 in CTIP2+ neurons (Fig 5 panel f)” value ([1]; CTR iPSC-derived MSNs) was 40.5874 and 43.5065 and 59.0476 and 55.7538 and 63.8384 and 58.6194 and the “p-ERK1/2 in CTIP2+ neurons” value ([1]; HD and isogenic control iPSC-derived MSNs, 50 μM, 30 min) was “induced ERK activation”. The “p-ERK1/2 in CTIP2+ neurons (Fig 5 panel f)” value ([1]; HD iPSC-derived MSNs) was 50.2062 and 59.3301 and 53.5036 and 55.8187 and 47.3002 and 65.1771.

Source: article PMC10630888, “Nuclear ERK1/2 signaling potentiation enhances neuroprotection and cognition via Importinα1/KPNA2” (EMBO Molecular Medicine, 2023)
